Assay results from BindingDB's records for doi:10.1021/jm00079a012 (Smithkline Beecham Pharmaceuticals, 1992).

Key:
[1] = biological target: Delta(24)-sterol reductase DHCR24 (Rattus norvegicus); test: Compound was tested for the inhibition of delta24-sterol reductase
[2] = biological target: Delta(24)-sterol reductase DHCR24 (Rattus norvegicus); test: as above; remark: listed apart in the source

Row | Structure (SMILES) | Ki [1] [nM] | Ki [2] [nM]
1 | C[C@H](CCC(=N)N)C1CC[C@@]2(C)C3=C(CC[C@]12C)[C@@]1(C)CC[C@H](O)C(C)(C)C1CC3 (stereo partly drawn) | 7 | –
2 | CC(C)[S+](C)CC[C@@H](C)C1CCC2C3CC=C4C[C@@H](O)CC[C@]4(C)C3CC[C@@]21C (stereo partly drawn) | 4 | –
3 | C[C@H](CCC(N)=[N+](C)C)C1CC[C@@]2(C)C3=C(CC[C@]12C)[C@@]1(C)CC[C@H](O)C(C)(C)C1CC3 (stereo partly drawn) | – | 12
